One data set deals with T1, ERβ LBD (Homo sapiens, UniProt Q92731).
T1 construct: pET28a+ vector containing ERβ LBD (residues from 261 to 500) along with an N-terminal His6-yBBr-TEV tag; His6 (N); yBBr (N); TEV cleavage site (N); made in house; host or cells: E. coli BL21(DE3) pLysS
Nature of the data set: Competition fluorescence polarization (FP) binding assay with FITC-ERL4 probe. The settings on record: binding to ER LBD, estradiol 1 μM, FITC-ERL4 10 nM, ERβ LBD 200 nM, mean ± S.E.M, at least four replicates, read-out: EC50. As to the method:
In addition to the PAMPA assay, to study the affinity of the first-generation ProLock™ stapled peptides to the Estrogen receptor p ligand-binding domain (ERβ LBD), a fluorescence polarization (FP) binding assay in competition format was used in the presence of the endogenous ERβ LBD ligand estradiol. Competition Fluorescence Polarization (FP) assay was performed on the peptides to determine their half-maximal effective concentration (EC50). To do this, FITC labeled ERL4 peptide (FITC-βAla-His-Pro-Leu-Leu-Nle-Arg-Leu-Leu-Leu-Ser-Pro-CONH2) was synthesized to be used as a fluorescence probe based on existing literature (Fuchs et al., Journal of the American Chemical Society 2013, 135 (11), 4364-4371). Direct FP was performed in black 384-well plates (Corning). The final volume of each assay well was 40 μL with constant concentration of FITC labeled ERL4 peptide (10 nM) and variable concentrations of ERβ LBD protein.
ERβ LBD expression and purification was performed as follows. BL21(DE3) pLysS E. coli cells were transformed with a pET28a+ vector containing ERβ LBD (residues from 261 to 500) along with an N-terminal His6-yBBr-TEV tag. An overnight culture in 10 mL of TB media containing 50 μg/mL kanamycin was prepared from a single bacterial colony. The overnight culture was subsequently added to 1 liter of autoclaved TB media containing 50 μg/mL kanamycin and shaken at 37° C. until an OD of 0.6-0.8 was reached. IPTG was added to the culture and left shaking for 6 hours. Bacterial culture was pelleted and resuspended in lysis buffer. Resuspended bacterial culture was incubated at 0° C. for 10 minutes before sonication at 65% amplitude with 10-sec cycles using a Branson Sonifier. The lysate was then cleared by centrifugation at 8000×g for 20 min. […] The expected molecular weight of the ERβ LBD protein is 30.8 KDa, which molecular weight was confirmed by SDS PAGE analysis. Purified ERβ LBD was concentrated to 90 μM and was stored at −80° C. buffer.
Competition FP assays were also employed. These were performed in black 384-well plates (Corning). The final volume of each assay well was 80 μL containing constant concentrations of estradiol (1 μM) and FITC labeled ERL4 (10 nM). The ERβ LBD concentration was held constant (200 nM) while varying the concentration of ProLock stapled peptides (3-fold dilution from 10 μM). Upon addition of samples to each well, the plate was centrifuged for 10 seconds at 3000 rpm and incubated at 4° C. for 1 hour. FP measurements were performed at room temperature with excitation and emission wavelengths at 485 and 535 nm using a Clariostar microplate reader (BMG Labtech). Each plate had high and low polarization samples, which are used to normalize the assay data. The competition FP results were analyzed by Prism 7 (GraphPad). The non-linear regression analysis of the data was used to determine the half-maximal effective concentration (EC50) of ProLock stapled peptides. […] The normalized FP values shown in FIG. 6 are mean±S.E.M of at least four independent replicates.

For data set [1] the following is noted: for % Retention: PAMPA. (In general: In PAMPA a lipid-coated filter parts donor from acceptor wells.)
A short description of the next data set: in vitro. Details: dose or concentration left out as unconfirmed. The settings on record: PAMPA, pH 7.4, PAMPA Pe.
The nature of data set [2]: CHI Log D measurement (chromatographic hydrophobicity index). The settings on record: pH 7.4.

Read-outs that look alike come from different tables or passages of the source. Starred links: 1 amine or outer side, 2 acyl side, 3 side chain; linkers in the order of their positions; H or OH if unused. Positions of bridges follow the written chain, without caps; N, C: chain ends. Non-standard residues stand in square brackets, D forms with d. Residues, ends and D or L forms follow the SMILES beside them. X1 = O=C([C@]1(CC=[*:3])CCCN1[*:1])[*:2]; αAllylPro = C=CC[C@@]1(C(=O)O)CCCN1; Ala(cPr) = N[C@@H](CC1CC1)C(=O)O; S5 = C=CCCC[C@](C)(N)C(=O)O

A word on the EC50: it is the concentration needed to bring the measured effect to its halfway point. What is called Papp is the rate of passage across a membrane or cell layer, normalised by area and donor concentration. What is called chromatographic logD is a lipophilicity value derived from retention on a column.
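Wherever % Retention is given: Phospholipid-membrane PAMPA, donor and acceptor in DPBS pH 7.4 with 5% DMSO, 37 °C for 5 h, compound in each well quantified by reverse-phase HPLC-MS.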
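Wherever PAMPA Pe (text) is given: Phospholipid-membrane PAMPA, donor and acceptor in DPBS pH 7.4 with 5% DMSO, 37 °C for 5 h, compound in each well quantified by reverse-phase HPLC-MS.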
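Wherever Papp is given: Phospholipid-membrane PAMPA, donor and acceptor in DPBS pH 7.4 with 5% DMSO, 37 °C for 5 h, compound in each well quantified by reverse-phase HPLC-MS.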

T1 sequence (Q92731 261-500, species assumed): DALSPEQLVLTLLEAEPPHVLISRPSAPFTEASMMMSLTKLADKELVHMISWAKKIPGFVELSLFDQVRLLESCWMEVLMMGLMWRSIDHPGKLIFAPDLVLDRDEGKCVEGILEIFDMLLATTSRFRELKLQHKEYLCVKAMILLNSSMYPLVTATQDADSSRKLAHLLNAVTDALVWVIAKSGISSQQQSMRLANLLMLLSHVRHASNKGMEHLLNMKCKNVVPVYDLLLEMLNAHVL

For `CNC(=O)[C@H](Cc1ccc(O)cc1)NC(=O)[C@H](CCC(N)=O)NC(=O)[C@H](CC(C)C)NC(=O)[C@H](CC(C)C)NC(=O)[C@]1(C)CCCC=CC[C@]2(CCCN2C(C)=O)C(=O)N[C@@H](CC(C)C)C(=O)N[C@@H](Cc2c[nH]cn2)C(=O)N1` (single isomer, unassigned) [PLL4-7, Ac-PL3-Leu-His-S5-Leu-Leu-Gln-Tyr-NHMe], at ERβ LBD (Table 2), the 50% effective concentration (EC50) is > 10 µM. In data set [1], the “PAMPA Pe (text)” value is 0.3-0.7 ×10^−6 cm/sec and the “% Retention” value is on record as 46 ± 3%. Besides, the Papp at 5 h in the data set “in vitro” was found to be 0.3 ± 0.1 ×10⁻⁶ cm/s. This compound gave a chromatographic logD in data set [2] of 2.5.
For the compound `CNC(=O)[C@H](CC(=O)O)NC(=O)[C@H](CC(C)C)NC(=O)[C@H](CC(C)C)NC(=O)[C@H](Cc1ccc(O)cc1)NC(=O)[C@]1(C)CCCC=CC[C@]2(CCCN2C(C)=O)C(=O)N[C@@H]([C@@H](C)O)C(=O)N[C@@H](CC(C)C)C(=O)N1` (single isomer, unassigned) [PLL5-5, Ac-PL3-Thr-Leu-S5-Tyr-Leu-Leu-Asp-NHMe], the EC50 at ERβ LBD (Table 4) is > 10 µM. The “% Retention” value in data set [1] stood at 101 ± 5%. Further, in the data set “in vitro”, the Papp at 5 h was 1.4 ± 0.2 ×10⁻⁶ cm/s. The compound further registered a chromatographic logD in data set [2] of 1.4.
Take `CNC(=O)[C@H](CC(=O)O)NC(=O)[C@H](CC(C)C)NC(=O)[C@H](CC(C)C)NC(=O)[C@H](Cc1ccc(O)cc1)NC(=O)[C@]1(C)CCCC=CC[C@]2(CCCN2C(C)=O)C(=O)N[C@@H](CCCCN)C(=O)N[C@@H](CC(C)C)C(=O)N1` (single isomer, unassigned) [PLL5-6, Ac-PL3-Lys-Leu-S5-Tyr-Leu-Leu-Asp-NHMe]: the EC50 on ERβ LBD (Table 4) is > 10 µM. In data set [1], the “% Retention” value is recorded as 105 ± 5%. In addition, the Papp at 5 h in the data set “in vitro” was 1.5 ± 0.2 ×10⁻⁶ cm/s. The chromatographic logD in data set [2] was 1.2.
On to `CNC(=O)[C@H](Cc1c[nH]cn1)NC(=O)[C@H](CC(C)C)NC(=O)[C@H](CC(C)C)NC(=O)[C@H](Cc1ccc(O)cc1)NC(=O)[C@]1(C)CCCC=CC[C@]2(CCCN2C(C)=O)C(=O)N[C@@H](CC(C)C)C(=O)N[C@@H](CC(C)C)C(=O)N1` (single isomer, unassigned) [PLL5-11, Ac-PL3-Leu-Leu-S5-Tyr-Leu-Leu-His-NHMe], for which the EC50 at ERβ LBD (Table 4) was > 10 µM. Also, the “% Retention” value in data set [1] was found to be 89 ± 1%. Also, in “in vitro”, the Papp at 5 h is ≤ 0.1 ×10⁻⁶ cm/s. For the same compound, the chromatographic logD in data set [2] worked out at 3.2.
As to `CNC(=O)[C@H](CC(=O)O)NC(=O)[C@H](CC(=O)O)NC(=O)[C@H](CC(C)C)NC(=O)[C@H](CC(C)C)NC(=O)[C@H](Cc1ccc(O)cc1)NC(=O)[C@]1(C)CCCC=CC[C@]2(CCCN2C(C)=O)C(=O)N[C@@H]([C@@H](C)O)C(=O)N[C@@H](CC(C)C)C(=O)N1` (single isomer, unassigned) [PLL7-1, Ac-PL3-Thr-Leu-S5-Tyr-Leu-Leu-Asp-Asp-NHMe], the EC50 on ERβ LBD (Table 4) was > 10 µM. Moreover, in data set [1], the “PAMPA Pe (text)” value worked out at 2.1e-06 cm/s and the “% Retention” value turned out to be 114 ± 3%. This compound also registered a Papp at 5 h in the data set “in vitro” of 2.1 ± 0.4 ×10⁻⁶ cm/s. Moreover, the chromatographic logD in data set [2] was found to be 1.
As to `CNC(=O)[C@H](CCC(N)=O)NC(=O)[C@H](CC(C)C)NC(=O)[C@H](CC(C)C)NC(=O)[C@H](Cc1ccc(O)cc1)NC(=O)[C@]1(C)CCCC=CC[C@]2(CCCN2C(C)=O)C(=O)N[C@@H](CC(C)C)C(=O)N[C@@H](CC(C)C)C(=O)N1` [PLL5-12, Ac-PL3-Leu-Leu-S5-Tyr-Leu-Leu-Gln-NHMe] (Ac-[X1]LL[S5]YLLQ-NHMe; staple 1-4), in data set [1], the “% Retention” value is listed as 97 ± 1%. Besides, the Papp at 5 h in the data set “in vitro” was ≤ 0.1 ×10⁻⁶ cm/s. In data set [2] (reverse-phase HPLC, Phenomenex Gemini C-18 column), this compound gave a chromatographic logD of 3.2.
On to `CNC(=O)[C@H](CC(=O)O)NC(=O)[C@H](CCC(N)=O)NC(=O)[C@H](CC(C)C)NC(=O)[C@H](CC(C)C)NC(=O)[C@H](Cc1ccc(O)cc1)NC(=O)[C@]1(C)CCCC=CCCC[C@](C)(NC(C)=O)C(=O)N[C@@H](C)C(=O)N[C@@H](CC2CC2)C(=O)N[C@@H](CC(C)C)C(=O)N1` [PLL7-7 variant 4, Ac-S5-Ala-Cpa-Leu-S5-Tyr-Leu-Leu-Gln-Asp-NHMe] (Ac-[S5]A[Ala(cPr)]L[S5]YLLQD-NHMe; staple 1-5), for which the “% Retention” value in data set [1] is 75 ± 1%. For the same compound, in the data set “in vitro”, the Papp at 5 h was ≤ 0.1 ×10⁻⁶ cm/s. In data set [2], this compound displayed a chromatographic logD of 2.4.
For the compound `C=CCCC[C@](C)(NC(=O)[C@H](CC(C)C)NC(=O)[C@H](CC1CC1)NC(=O)[C@]1(CC=C)CCCN1C(C)=O)C(=O)N[C@@H](Cc1ccc(O)cc1)C(=O)N[C@@H](CC(C)C)C(=O)N[C@@H](CC(C)C)C(=O)N[C@@H](CCC(N)=O)C(=O)N[C@@H](CC(=O)O)C(=O)NC` [PLL7-7 variant 5, Ac-PL3-Cpa-Leu-S5-Tyr-Leu-Leu-Gln-Asp-NHMe] (Ac-[αAllylPro][Ala(cPr)]L[S5]YLLQD-NHMe), the “% Retention” value in data set [1] was 84 ± 2%. In the data set “in vitro”, this compound gave a Papp at 5 h of 0.3 ± 0.1 ×10⁻⁶ cm/s. Moreover, the chromatographic logD in data set [2] turned out to be 2.3.
Take `CNC(=O)[C@H](CC(=O)O)NC(=O)[C@H](Cc1c[nH]cn1)NC(=O)[C@H](CC(C)C)NC(=O)[C@H](CC(C)C)NC(=O)[C@H](CCCNC(=N)N)NC(=O)[C@]1(C)CCCC=CCCC[C@](C)(NC(C)=O)C(=O)N[C@@H](C)C(=O)N[C@@H](CC(C)C)C(=O)N[C@@H](CC(C)C)C(=O)N1` [PLL7-9 variant 4, Ac-S5-Ala-Leu-Leu-S5-Arg-Leu-Leu-His-Asp-NHMe] (Ac-[S5]ALL[S5]RLLHD-NHMe; staple 1-5): the “% Retention” value in data set [1] was determined as 101 ± 24%. Moreover, the Papp at 5 h in the data set “in vitro” was ≤ 0.1 ×10⁻⁶ cm/s. Also, in data set [2], the chromatographic logD amounted to 2.7.
On to `C=CCCC[C@](C)(NC(=O)[C@H](CC(C)C)NC(=O)[C@H](CC(C)C)NC(=O)[C@]1(CC=C)CCCN1C(C)=O)C(=O)N[C@@H](CCCNC(=N)N)C(=O)N[C@@H](CC(C)C)C(=O)N[C@@H](CC(C)C)C(=O)N[C@@H](Cc1c[nH]cn1)C(=O)N[C@@H](CC(=O)O)C(=O)NC` [PLL7-9 variant 5, Ac-PL3-Leu-Leu-S5-Arg-Leu-Leu-His-Asp-NHMe] (Ac-[αAllylPro]LL[S5]RLLHD-NHMe), for which, in data set [1], the “% Retention” value turned out to be 91 ± 2%. In the data set “in vitro”, this compound gave a Papp at 5 h of 0.5 ± 0.1 ×10⁻⁶ cm/s. The compound further had a chromatographic logD in data set [2] of 2.5.
Consider `CNC(=O)[C@H](CC(N)=O)NC(=O)[C@H](CC(C)C)NC(=O)[C@H](CC(C)C)NC(=O)[C@H](Cc1c[nH]cn1)NC(=O)[C@]1(C)CCCC=CCCC[C@](C)(NC(C)=O)C(=O)N[C@@H](C)C(=O)N[C@@H](C)C(=O)N[C@@H](CC(C)C)C(=O)N1` [PLL7-20 variant 4, Ac-S5-Ala-Ala-Leu-S5-His-Leu-Leu-Asn-NHMe] (Ac-[S5]AAL[S5]HLLN-NHMe; staple 1-5), for which, in data set [1], the “% Retention” value amounted to 74 ± 6%. In addition, the Papp at 5 h in “in vitro” was ≤ 0.1 ×10⁻⁶ cm/s. The compound also yielded a chromatographic logD in data set [2] of 2.6.
Consider `C=CCCC[C@](C)(NC(=O)[C@H](CC(C)C)NC(=O)[C@H](C)NC(=O)[C@]1(CC=C)CCCN1C(C)=O)C(=O)N[C@@H](Cc1c[nH]cn1)C(=O)N[C@@H](CC(C)C)C(=O)N[C@@H](CC(C)C)C(=O)N[C@@H](CC(N)=O)C(=O)NC` [PLL7-20 variant 5, Ac-PL3-Ala-Leu-S5-His-Leu-Leu-Asn-NHMe] (Ac-[αAllylPro]AL[S5]HLLN-NHMe), for which the “% Retention” value in data set [1] came out at 88 ± 4%. This compound also registered a Papp at 5 h in “in vitro” of 0.3 ± 0.1 ×10⁻⁶ cm/s. This compound gave a chromatographic logD in data set [2] of 2.7.
